“Also recorded” adds a separate entry of the source. Read-outs that look alike come from different tables or passages of the source. One block for each compound: values may come before it.
Experiments:
B lymphocytes = assay: Activity in B lymphocytes; format: cell-based
[1] = Reversion of 14HRR to retinal; format: in vitro ADME
[2] = Stability of retinoids in serum-free tissue culture medium; format: in vitro ADME
SK3886 = assay: Retinol metabolism, SK3886; format: in vitro ADME
Description: (§1) Legend: 2.5×10^6 cells were grown overnight in 5 ml RPMI/10% FBS. The FBS was preincubated at room temperature with 14.4 uCi [^3 H] retinol (NEN) for 4h. The cell pellet was washed twice with PBS. The retinoid were extracted according to MClean et al. 90 and separated on an analytical c18 reverse phase column according to FIG. 7. The DPM were determined using an on-line scintillation counter.

Raji = assay: Retinol metabolism, Raji; format: in vitro ADME, human
Description: as §1

26 mammalian cells = assay: 3H retinol conversion to P3/14HRR in 26 mammalian cells; format: in vitro ADME; conditions: retinol bound to fetal calf serum
Description: The use of ^3 H retinol bound to fetal calf serum was used as an assay to test for P3 in other cell lines.
The use of ^3 H retinol bound to fetal calf serum was used as an assay to test for 14HRR in other cell lines.
as §1

5/2 = assay: Retinol metabolism, 5/2; format: in vitro ADME, human
Description: as §1

P388D.1 = assay: Retinol metabolism, P388D.1; format: in vitro ADME, mouse
Description: as §1

EL-4 = assay: Retinol metabolism, EL-4; format: in vitro ADME, mouse
Description: as §1

SK--N--SH = assay: Retinol metabolism, SK--N--SH; format: in vitro ADME, human
Description: as §1

thymocytes = assay: Viable and blast cell counts of thymocytes (trypan blue); format: cell-based, BALB/c mouse
Description: FIG. 14C: BALB/c thymocytes (3×10^6 /ml) were activated with anti-CD3e mAb as FIG. 1A. The total number of viable cells was determined by counting trypan blue-excluding cells, and those of blast cells by counting viable large cells in six replicate wells. Because of the relatively low cell density required in the culture (see FIG. 14A), the numbers reported for blast cells are best estimates.
Thymuses of 3 to 6-week-old BALB/c mice were teased in serum-free RPMI medium supplemented with 1% BSA, 10^-6 M linoleic acid and antibiotics. Depletion of accessory cells was achieved by two cycles of complement-dependent lysis with a mixture of anti-IA^d (5 μg/ml) and anti-IE^d (1:500 diluted ascites fluid). Briefly, cells were incubated on ice for 30 minutes with Ia antibodies, spun down, resuspended in 1:40 diluted rabbit complement, and incubated at 37° C. for 45 minutes. Incubations and two subsequent washes were carried out with RPMI medium containing 1% BSA. Cell viability was evaluated by trypan blue dye exclusion. To determine the extent of depletion of accessory cells, samples were stained with FITC-conjugated anti-Fc receptor antibody and analyzed by flow cytometry on a FACScan instrument (Becton Dickinson). No FcR-bearing cells were detected by this procedure.

5/2 cells = format: in vitro ADME, human
Description: 5/2 cells (10^6 cells in 10 ml HB 101 medium) were incubated with all-trans-[^3 H] retinol (10 uCe/ml). After 24 hours, retinoids were extracted from the washed cell pellet and unlabeled marker retinoids were added. The crude extract was loaded on an analytical reversed-phase C-18 column. Retinoids were eluted with the shown linear gradient of water/methanol/chloroform. The flow rate was 0.5 ml/min. DPM were determined with an on line scintillation counter. Reference retinoids were the all-trans forms of 0: 3,4-didehydroretinoic acid, 1: all-trans-retinoic acid, 2: 3,4-didehydroretinol, 3: retinol, 4: retinyl linoleate, 5: retinyl oleate, 6: retinyl palmitate. Shaded area corresponds to P3. Cross-hatched area corresponds to P1.
Lymphoblastoid 5/2 cells grown in the presence of 10^-6 M retinol were spiked with ^3 H-labeled retinol. After 16 hours the cell pellet was delipidated according to the method of McLean et al. and separated on a reversed phase C-18 HPLC column (FIG. 7). […] Three peaks, P1, P2 and P3, could not be immediately identified. One peak eluting at 36-39 minutes (corresponding 83% methanol 7% water) provisionally called P3, but now known as 14HRR, was unusual because unlike P1 eluting at 31-34 minutes, its relative amount increased when the retinol concentration was lowered or when retinol was given to the cells bound to RBP. […] Since HeLa cells contain 14HRR, these cells were also used. 50 ml of packed HeLa cells (10^10 cells) yielded 25 OD348nmunits of pure P3 after the following sequence of steps: 1. Growth in the presence of 10^-5 M retinol; 2. Extraction of cell pellet according to McClean et al. (13); 3. Preparative C-18 HPLC column eluted with a water/methanol gradient; 4. semipreparative C18 HPLC column eluted with a water/acetonitrile gradient; 5. analytical C4 column eluted with a water/methanol gradient.

reversion to retinal [1]: does not revert to retinal
half-life [2]: ~4 h
half-life ([2]; tissue culture medium, data not shown): 4 h
Compound: CC(C=CC=C(C)C(O)CO)=CC=C1C(C)=CCCC1(C)C (stereo not shown) [14HRR, 14-hydroxy-4,14-retro-retinol]
activity relative to all-trans retinol on a concentration basis (B lymphocytes; B cells): 10-30 fold
potency relative to retinol in preventing necrotic cell death (B lymphocytes; concentration basis): 20-40 times

Ester (% of taken up retinol) (SK3886): 2%
P3 (% of taken up retinol) (SK3886): 3%
Total cts. (SK3886): 4.7 × 10^5 cts.
Ester (% of taken up retinol) (Raji; 4°): 0%
P3 (% of taken up retinol) (Raji; 4°): 0%
Total cts. (Raji; 4°): 2.5 × 10^5 cts.
Ester (% of taken up retinol) (Raji; 37°): 14%
P3 (% of taken up retinol) (Raji; 37°): 3%
Total cts. (Raji; 37°): 4.0 × 10^5 cts.
Ester (% of taken up retinol) (5/2): 24%
P3 (% of taken up retinol) (5/2): 4%
Total cts. (5/2): 5.7 × 10^5 cts.
Ester (% of taken up retinol) (P388D.1): 26%
P3 (% of taken up retinol) (P388D.1): 0.5%
Total cts. (P388D.1): 1.4 × 10^5 cts.
Ester (% of taken up retinol) (EL-4): 44%
P3 (% of taken up retinol) (EL-4): 5%
Total cts. (EL-4): 2.8 × 10^5 cts.
Ester (% of taken up retinol) (SK--N--SH): 25%
P3 (% of taken up retinol) (SK--N--SH): 0.9%
Retinol (% of taken up retinol) (SK--N--SH): 56%
Total cts. (SK--N--SH): 2.0 × 10^5 cts.
Compound: CC1=C(/C=C/C(C)=C/C=C/C(C)=C/CO)C(C)(C)CCC1 [retinol, all-trans retinol]
formation of P3/14HRR from 3H retinol (26 mammalian cells): radioactivity peak at the position where 14HRR normally elutes; also recorded: radioactivity peak at the position where P3 normally elutes
T cell activation / blast transformation by agent alone (thymocytes; alone): no discernible T cell activation
viability of thymocyte cultures (thymocytes; retinol by itself): maintain a higher state of viability than anti-CD3e "only" stimulation

Compound: CC1=C(/C=C/C(C)=C/C=C/C(C)=C/C(=O)O)C(C)(C)CCC1 [all-trans retinoic acid]
detection as metabolite of retinol (5/2 cells): not detectable

Source: patent US5814612A, “Retinol derivatives and uses thereof” (priority 1992, dated 1998)
